Assay results published in PubChem BioAssay AID328 (DTP/NCI, 2004).
Several values for one entry are separate records, joined by “and”; a condition that tells them apart may be missing. Equal entries are not always repeated. Inconclusive results and toxic doses are left out. The calls were made as follows: active = survival T/C of 150% or more; inactive = T/C below 125% in these data.

Tested on: BDF1 mice, P388 leukemia ip, median survival T/C
Test: NCI In Vivo Anticancer Drug Screen. Data for tumor model P388 Leukemia (intraperitoneal) in B6D2F1 (BDF1) mice
Details: endpoint: median survival time, higher = longer survival
Method in brief: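 Reported as T/C, where T is the survival measurement in dosed animals and C the same measurement in vehicle controls.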

[1] = dose: 50.0 mg/kg/injection, schedule: Q01DX009 (ip), vehicle: saline
[2] = dose: 100.0 mg/kg/injection, schedule: Q01DX009 (ip), vehicle: saline
[3] = dose: 100.0 mg/kg/injection, schedule: Q04DX003 (ip), vehicle: Klucel (hydroxypropylcellulose) (HPC)
[4] = dose: 200.0 mg/kg/injection, schedule: Q04DX003 (ip), vehicle: Klucel (hydroxypropylcellulose) (HPC)
[5] = dose: 100.0 mg/kg/injection, schedule: Q04DX003 (ip), vehicle: saline with Tween-80
[6] = dose: 200.0 mg/kg/injection, schedule: Q04DX003 (ip), vehicle: saline with Tween-80
[7] = dose: 400.0 mg/kg/injection, schedule: Q04DX003 (ip), vehicle: saline with Tween-80
[8] = dose: 50.0 mg/kg/injection, schedule: Q01DX009 (ip), vehicle: saline with Tween-80
[9] = dose: 100.0 mg/kg/injection, schedule: Q01DX009 (ip), vehicle: saline with Tween-80
[10] = dose: 200.0 mg/kg/injection, schedule: Q01DX009 (ip), vehicle: saline with Tween-80

Measured: T/C

O=C(O)C1CCC[N-]C1.O=C(O)C1CCC[N-]C1.O=C(O)C1CCC[N-]C1.O=C(O)C1CCC[N-]C1.[Cl][Rh][Cl] (configuration not stated)
inactive: dose: 4.0 mg/kg/injection, schedule: Q01DX009 (ip), vehicle: saline 100 % of control | dose: 8.0 mg/kg/injection, schedule: Q01DX009 (ip), vehicle: saline 99 % of control | dose: 10.0 mg/kg/injection, schedule: Q01DX009 (ip), vehicle: saline 118 % of control | dose: 16.0 mg/kg/injection, schedule: Q01DX009 (ip), vehicle: saline 93 % of control | dose: 20.0 mg/kg/injection, schedule: Q01DX009 (ip), vehicle: saline 98 % of control | dose: 40.0 mg/kg/injection, schedule: Q01DX009 (ip), vehicle: saline 98 % of control | [1] 100 % of control | [2] 86 % of control | dose: 100.0 mg/kg/injection, schedule: Q04DX003 (ip), vehicle: saline 100 % of control | dose: 200.0 mg/kg/injection, schedule: Q04DX003 (ip), vehicle: saline 108 % of control | dose: 400.0 mg/kg/injection, schedule: Q04DX003 (ip), vehicle: saline 102 % of control

Cc1c(N2CCCCC2)[nH]c2ccccc12
inactive: dose: 50.0 mg/kg/injection, schedule: Q04DX003 (ip), vehicle: Klucel (hydroxypropylcellulose) (HPC) 100 % of control | [3] 100 % of control | [4] 95 % of control

CC(C)C(Br)C(N)=O (configuration not stated)
inactive: dose: 12.5 mg/kg/injection, schedule: Q04DX003 (ip), vehicle: saline 104 % of control | dose: 25.0 mg/kg/injection, schedule: Q04DX003 (ip), vehicle: saline 109 % of control | dose: 50.0 mg/kg/injection, schedule: Q04DX003 (ip), vehicle: saline 109 % of control

COC(=O)C1=COC(C)C2CN3CCc4c([nH]c5ccccc45)C3CC12 (configuration not stated)
inactive: dose: 20.0 mg/kg/injection, schedule: Q01DX010 (ip), vehicle: saline 90 % of control | dose: 40.0 mg/kg/injection, schedule: Q01DX010 (ip), vehicle: saline 90 % of control | dose: 160.0 mg/kg/injection, schedule: Q01DX010 (ip), vehicle: saline 90 % of control

C[C@]12CCC(=O)C=C1CC[C@@H]1[C@@H]2[C@@H](O)C[C@@]2(C)[C@H]1CC[C@]2(O)C(=O)COC(=O)c1ccc([N+](=O)[O-])cc1Cl
inactive: [5] 100 % of control | [6] 107 % of control | [7] 103 % of control

CCCCCCCCCCCCCCCC(=O)N(C/C=C/CN(CCCN(C)C)C(=O)CCCCCCCCCCCCCCC)CCCN(C)C
inactive: dose: 1.56 mg/kg/injection, schedule: Q01DX009 (ip), vehicle: saline with Tween-80 95 % of control | dose: 3.13 mg/kg/injection, schedule: Q01DX009 (ip), vehicle: saline with Tween-80 100 % of control | dose: 6.25 mg/kg/injection, schedule: Q01DX009 (ip), vehicle: saline with Tween-80 113 % of control | dose: 12.5 mg/kg/injection, schedule: Q01DX009 (ip), vehicle: saline with Tween-80 95 % of control and 100 % of control

Cn1c(CC(O)(C(F)(F)Cl)C(F)(F)Cl)cc(=O)n1-c1ccccc1
inactive: [5] 100 % of control | [6] 100 % of control

O=S1(=O)CC(O)C(Cl)C1 (configuration not stated)
inactive: dose: 100.0 mg/kg/injection, schedule: Q01DX001 (ip), vehicle: saline 104 % of control | [3] 100 % of control | dose: 200.0 mg/kg/injection, schedule: Q01DX001 (ip), vehicle: saline 100 % of control | [4] 100 % of control | dose: 400.0 mg/kg/injection, schedule: Q04DX003 (ip), vehicle: Klucel (hydroxypropylcellulose) (HPC) 100 % of control

CC1(c2ccc(Cl)s2)NC(=O)NC1=O (configuration not stated)
inactive: dose: 300.0 mg/kg/injection, schedule: Q04DX003 (ip), vehicle: saline with Tween-80 100 % of control | [7] 98 % of control | dose: 600.0 mg/kg/injection, schedule: Q04DX003 (ip), vehicle: saline with Tween-80 86 % of control

O=[N+]([O-])c1cccnc1Oc1cccc(C(F)(F)F)c1
inactive: dose: 50.0 mg/kg/injection, schedule: Q01DX001 (ip), vehicle: other 100 % of control | dose: 100.0 mg/kg/injection, schedule: Q01DX001 (ip), vehicle: other 95 % of control | dose: 200.0 mg/kg/injection, schedule: Q01DX001 (ip), vehicle: other 86 % of control | dose: 400.0 mg/kg/injection, schedule: Q01DX001 (ip), vehicle: other 95 % of control

Cc1nc2ccccc2nc1CBr
inactive: dose: 2.66 mg/kg/injection, schedule: Q01DX009 (ip), vehicle: saline with Tween-80 109 % of control | dose: 3.12 mg/kg/injection, schedule: Q01DX009 (ip), vehicle: Klucel (hydroxypropylcellulose) (HPC) 111 % of control | dose: 6.0 mg/kg/injection, schedule: Q01DX009 (ip), vehicle: saline with Tween-80 122 % of control | dose: 6.25 mg/kg/injection, schedule: Q01DX009 (ip), vehicle: Klucel (hydroxypropylcellulose) (HPC) 122 % of control | dose: 6.25 mg/kg/injection, schedule: Q04DX003 (ip), vehicle: saline with Tween-80 109 % of control | dose: 6.3 mg/kg/injection, schedule: Q01DX009 (ip), vehicle: Klucel (hydroxypropylcellulose) (HPC) 105 % of control | dose: 12.5 mg/kg/injection, schedule: Q01DX009 (ip), vehicle: Klucel (hydroxypropylcellulose) (HPC) 105 % of control | dose: 12.5 mg/kg/injection, schedule: Q04DX003 (ip), vehicle: saline with Tween-80 109 % of control | dose: 25.0 mg/kg/injection, schedule: Q01DX009 (ip), vehicle: saline with Tween-80 122 % of control | dose: 25.0 mg/kg/injection, schedule: Q04DX003 (ip), vehicle: saline with Tween-80 113 % of control

CCCC(O)C1CCCCC1O (configuration not stated)
inactive: [5] 100 % of control | [6] 100 % of control | [7] 100 % of control

O=C(CSc1cc(-c2ccc(Cl)cc2)s[s+]1)c1ccccc1
inactive: [8] 101 % of control | [9] 109 % of control | [5] 114 % of control | [10] 113 % of control | [6] 114 % of control | dose: 400.0 mg/kg/injection, schedule: Q01DX009 (ip), vehicle: saline with Tween-80 113 % of control | [7] 93 % of control

CCN(CC)CCCCCNc1cc(Cl)c(Cl)cc1[N+](=O)[O-]
inactive: [1] 111 % of control | [2] 100 % of control

O=[N+]([O-])c1cc(C(F)(F)F)cc([N+](=O)[O-])c1N1CCCC(n2cccc2)C1 (configuration not stated)
inactive: [8] 107 % of control | [9] 109 % of control | [10] 118 % of control

O=C1C=CC(=O)N1CCc1ccccc1
inactive: dose: 5.0 mg/kg/injection, schedule: Q01DX009 (ip), vehicle: saline with Tween-80 100 % of control | dose: 10.0 mg/kg/injection, schedule: Q01DX009 (ip), vehicle: saline with Tween-80 92 % of control | dose: 10.0 mg/kg/injection, schedule: Q04DX003 (ip), vehicle: saline with Tween-80 108 % of control | dose: 20.0 mg/kg/injection, schedule: Q01DX009 (ip), vehicle: saline with Tween-80 92 % of control | dose: 20.0 mg/kg/injection, schedule: Q04DX003 (ip), vehicle: saline with Tween-80 108 % of control

CC(=O)C1CC2C=CCC(C2)C1 (configuration not stated)
inactive: dose: 50.0 mg/kg/injection, schedule: Q01DX001 (ip), vehicle: saline with Tween-80 95 % of control | dose: 100.0 mg/kg/injection, schedule: Q01DX001 (ip), vehicle: saline with Tween-80 120 % of control | dose: 200.0 mg/kg/injection, schedule: Q01DX001 (ip), vehicle: saline with Tween-80 95 % of control

CCCCCCCCCCCCCCCCCCNC(=O)Nc1ccc(CC)cc1
inactive: [5] 90 % of control | [6] 104 % of control | [7] 95 % of control
